Literature values in patent US20230111210A1, “COCRYSTAL ANTIOXIDANTS OF PROTOCATECHUIC ACID WITH L-THEANINE FOR THE TREATMENT OF OXIDATIVE STRESS AND INFLAMMATORY CONDITIONS” (priority 2020, published 2023).
Converted amounts (≈) assume the structure as drawn.

Assays:
[1] = tested on: AMPA (α-amino-3-hydroxy-5-methyl-4-isoxazolepropionic acid) receptors
[2] = not given; remark: listed apart in the source
rats = settings: rat, in vivo
[3] = tested on: NMDA (N-methyl-D-Aspartate) receptors
rabbits = settings: rabbit, in vivo

SMILES	affinity for AMPA receptors [1]	pKa	solubility in water (in words) [2]	LD50 (rats)	affinity for NMDA receptors [3]	affinity for Kainate receptors (Kainate receptors)	solubility in water [2] [mg/mL]	oral LD50 (rabbits)
CCNC(=O)CC[C@H](N)C(=O)O [L-theanine, N-ethyl-L-glutamine]	micromolar affinities	2.35	soluble in water	greater than 5000 mg/kg	micromolar affinities	micromolar affinities		
O=C(O)c1ccc(O)c(O)c1 [Protocatechuic acid, 3,4-dihydroxybenzoic acid]		4.26					18.2 (≈ 118 mM)	greater than 3000 mg/kg
